The record followed here is patent publication US7442554B2, “Compositions and methods involving glucocorticoid receptor site II” (Bristol-Myers Squibb Company, priority 2002, dated 2008).

The structures appear in SMILES notation. Entries after “also recorded” stand apart in the source; their conditions may differ. Read-outs that look alike come from different tables or passages of the source.

The target of assay [1] is T1, human full-length glucocorticoid receptor (Homo sapiens, UniProt P04150).
T1 construct: recombinantly expressed human full-length glucocorticoid receptor; purchased Panvera Co., Madison, Wis
T1 sequence (P04150 1-777): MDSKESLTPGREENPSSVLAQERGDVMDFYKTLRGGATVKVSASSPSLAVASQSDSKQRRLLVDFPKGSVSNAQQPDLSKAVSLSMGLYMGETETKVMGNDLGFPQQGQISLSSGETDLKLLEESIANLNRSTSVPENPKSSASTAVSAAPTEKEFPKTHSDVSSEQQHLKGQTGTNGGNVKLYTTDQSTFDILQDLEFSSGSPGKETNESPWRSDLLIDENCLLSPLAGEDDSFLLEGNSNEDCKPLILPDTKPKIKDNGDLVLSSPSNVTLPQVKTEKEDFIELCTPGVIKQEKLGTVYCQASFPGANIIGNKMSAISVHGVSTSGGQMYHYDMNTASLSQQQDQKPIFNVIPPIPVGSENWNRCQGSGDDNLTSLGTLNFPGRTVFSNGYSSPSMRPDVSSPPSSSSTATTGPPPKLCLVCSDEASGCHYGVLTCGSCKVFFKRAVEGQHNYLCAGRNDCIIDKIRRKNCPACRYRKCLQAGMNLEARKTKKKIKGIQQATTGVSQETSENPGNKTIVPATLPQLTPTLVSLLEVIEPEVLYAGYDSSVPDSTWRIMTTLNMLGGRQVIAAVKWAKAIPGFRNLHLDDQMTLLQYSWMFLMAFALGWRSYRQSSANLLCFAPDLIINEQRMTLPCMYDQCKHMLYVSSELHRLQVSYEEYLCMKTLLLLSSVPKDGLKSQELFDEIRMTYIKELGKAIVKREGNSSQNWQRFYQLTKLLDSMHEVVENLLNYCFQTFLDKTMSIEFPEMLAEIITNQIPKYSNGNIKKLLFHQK
In words: GR Site I binding assay (FITC-dexamethasone fluorescence polarization, Panvera kit). How it is done: In order to measure the binding of compounds to Site I on the glucocorticoid receptor a commercially available kit was used (Glucocorticoid receptor competitor assay kit, Panvera Co., Madison, Wis.). Briefly, a cell lysate containing recombinantly expressed human full-length glucocorticoid receptor was mixed with a fluorescently labeled glucocorticoid (4 nM FITC-dexamethasone) plus or minus test molecule. After one hour at room temperature, the fluorescence polarization (FP) of the samples were measured.

Another assay concerns the target T2, Site II on GR (Homo sapiens, UniProt P04150).
T2 construct: recombinantly expressed human full-length glucocorticoid receptor; purchased Panvera Co., Madison, Wis
T2 sequence (P04150 1-777): T1 sequence (P04150 1-777)
In words: Indirect Site II assay: modified FITC-dexamethasone FP assay with Compound D. The format is binding. How it is done: In order to measure the binding of putative Site II compounds to GR we utilized the Glucocorticoid receptor competitor assay kit (Panvera Co., Madison, Wis.) in a modified version of the FITC-dexamethasone fluorescence polarization assay described in Example 2. In this assay, Compound D was added at a concentration of 200 nM, which yields approximately 50% inhibition of FITC-dexamethasone binding. Compound D (an R enantiomer) is Compound 50 of Example 1. Compound D is a ligand of Site II that inhibits via Site II FITC-dexamethasone binding to GR. […] These competitor Site II ligands, all compounds of Example 1 and all S enantiomers, were: Compound A; Compound C, which is the S enantiomer of Compound D; and Compound E, yet another S enantiomer of Example 1. If the competitor compound binds to Site II and displaces Compound D, then FITC-dexamethasone should rebind to GR. […] This assay can therefore measure the relative binding of compounds to the Site II on GR.

Assay [2] has as its system tyrosine amino transferase mRNA. Kind of assay: cells. The note with it: read-out: EC50 for induction of tyrosine amino transferase mRNA. How it is done: A second assay which measures the ability of compounds to induce the expression of tyrosine amino transferase mRNA in liver cells was also utilized to determine the ability of compounds to induce DNA binding. […] Test molecules were analyzed in the concentration range from 0.1 nM to 40 μM.

In assay [3] the target is T3, GAL4 DNA binding domain linked to the ligand binding domain of GR (Homo sapiens, UniProt P04150).
T3 construct: expressed in transfected cells; host or cells: HeLa (stably transfected)
T3 sequence (P04150 524-758 limits assumed): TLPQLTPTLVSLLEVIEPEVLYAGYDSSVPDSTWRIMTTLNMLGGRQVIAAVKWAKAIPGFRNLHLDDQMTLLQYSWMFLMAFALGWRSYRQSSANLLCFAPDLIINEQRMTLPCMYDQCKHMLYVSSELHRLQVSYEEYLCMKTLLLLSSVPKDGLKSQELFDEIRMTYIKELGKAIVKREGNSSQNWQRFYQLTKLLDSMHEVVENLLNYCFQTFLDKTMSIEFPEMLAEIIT
In words: Cellular transcriptional assay (HeLa, GAL4-GR LBD, luciferase). It is filed as cell-based. How it is done:
In order to measure the ability of compounds to induce DNA binding and transcriptional activation in cells the following assay was performed. A HeLa cell line was stably transfected with a gene expressing a fusion protein consisting of the GAL4 DNA binding domain linked to the ligand binding domain of GR. Also transfected into these cells was a DNA binding site for GAL4 (5 repetitions of a 17-mer GAL4 binding site) linked to the beta-globin reporter in front of the luciferase gene. See Eisenmann, G., Cheynel, and Gronemeyer, H. (1995), Quand les cellules scintillent, Biofutur (Le Technoscope), 151: 8. […] After 20 hours the level of luciferase activity was measured using a Steady Glo Luciferase assay system (Promega Co., Madison, Wis.). […] EC50s were calculated by using standard curve fitting methods such as Excel Fit (Microsoft Co., Redmond, Wash.). An EC50 is the test molecule concentration required to cause a 50% stimulation of transcription.

The subject of assay [4] is AP-1 induced transcriptional activity. In words: Cellular transrepressional assay (AP-1 luciferase reporter, A549 cell, PMA). It is filed as cell-based. The note with it: for IC50: read-out: IC50 for transrepression. How it is done: To measure the ability of test molecules to inhibit AP-1 induced transcriptional activity we utilized an A549 cell which was stably transfected with a plasmid containing 7×AP-1 DNA binding sites (pAP-1-Luc plasmid, Stratagene Co. La Jolla, Calif.) followed by the gene for luciferase. Cells were activated with 10 ng/ml of phorbol myristic acid (PMA) plus or minus test molecules for 7 hours. After 7 hours a luciferase reagent was added to measure luciferase enzymatic activity in the cell. After a 10 minute incubation of luciferase reagent with cells, luminescence was measured in a TopCount luminescence counter. Repression of AP-1 activity was calculated as the percentage decrease in the signal induced by PMA alone. […] IC50s were determined by using standard curve fitting methods such as Excel fit (Microsoft Co.). An IC50 is the test molecule concentration which causes a 50% repression of transcription, i.e. a 50% reduction of AP-1 activity.
(In general: In a reporter assay the amount or activity of a reporter protein is the signal.)

Take `Cc1ccc(-c2csc(NC(=O)C3(C)CC4(C#N)c5ccccc5C3c3ccccc34)n2)c2ccccc12` (centres unmarked) [Compound C]: the “inhibition of dexamethasone binding to GR by the compound on its own” value in assay [1] is given as “do not inhibit dexamethasone binding; also recorded: do not inhibit dexamethasone on their own”. Moreover, at Site II on GR (Compound D at 200 nM), the “displacement of Compound D allowing FITC-dexamethasone to rebind to GR” value is “effective at displacing Compound D”.
The term inhibition denotes the percentage by which the read-out fell short of the control. Consider `Cc1ccc(-c2csc(NC(=O)C3(C)CC4(C#N)c5ccccc5C3c3ccccc34)n2)c2ccccc12` (centres unmarked) [Compound D], for which, in assay [1], the “inhibition of dexamethasone binding to GR by the compound on its own” value was “does inhibit dexamethasone”. For the same compound, the inhibition at 0.2 µM at Site II on GR (200 nM, read-out: inhibition of FITC-dexamethasone binding) is about 50%.
As usually defined, the EC50 is the midpoint of the concentration-response curve. The term IC50 denotes the concentration at which inhibition is half-maximal. For `C[C@@H]1C[C@H]2[C@@H]3CCC4=CC(=O)C=C[C@]4(C)[C@@]3(F)[C@@H](O)C[C@]2(C)[C@@]1(O)C(=O)CO` [dexamethasone], the EC50 in assay [2] is about 50 nM. Besides, the “% stimulation” value in assay [3] (absence of Compound A) was determined as 100%; in assay [3] (presence of Compound A), 47%. Further, the IC50 came to 3.4 nM in assay [4] (Homo sapiens, A549, absence of Compound A) and 1.2 nM in assay [4] (Homo sapiens, A549, presence of 800 nM Compound A). Besides, in assay [4] (Homo sapiens, A549, presence of 800 nM Compound A, read-out: percent inhibition), the inhibition at 0.8 µM stood at 100%. In assay [4] (absence of Compound A), this compound displayed a maximum percent inhibition of 75%.
